In the test the target is T1, GPR73 (prokineticin 1 receptor) (Homo sapiens, UniProt Q8TCW9).
T1 construct: expressed in transfected cells; host or cells: HEK 293
Nature of the test: PK1 functional assay: Ca2+ mobilization screening for PK1 antagonists on the FLIPR. Particulars: HEK 293 GPR73 cells, multiple values = multiple testing; for inhibition at 10 µM: HEK293, 10 μM compound, read-out: Ca^2+ Mobilization % Inh @ 10 μM; for IC50: PK1 ligand preparation at its EC50, read-out: Ca^2+ Mobilization IC50. The test is classed as cell-based. Put shortly: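 HEK293 cells expressing human GPR73 were loaded with Calcium Plus dye, then on FLIPR given compound for 4 min 15 s before PK1 ligand at its predetermined EC50. Baseline-subtracted fluorescence over 1 min 45 s gave percent inhibition versus maximal signal; IC50 fitted.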

T1 sequence (Q8TCW9 whole entry, species assumed): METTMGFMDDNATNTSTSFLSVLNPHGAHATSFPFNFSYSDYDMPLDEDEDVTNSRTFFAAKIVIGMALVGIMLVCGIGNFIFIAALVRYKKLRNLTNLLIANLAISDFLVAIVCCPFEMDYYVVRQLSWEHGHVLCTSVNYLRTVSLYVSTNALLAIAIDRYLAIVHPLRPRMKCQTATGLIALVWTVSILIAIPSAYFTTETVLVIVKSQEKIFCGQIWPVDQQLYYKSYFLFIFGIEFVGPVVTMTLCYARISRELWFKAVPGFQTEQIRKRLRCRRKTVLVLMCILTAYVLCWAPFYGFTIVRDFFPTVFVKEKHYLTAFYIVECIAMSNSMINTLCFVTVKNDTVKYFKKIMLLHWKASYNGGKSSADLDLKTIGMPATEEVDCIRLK

In the case of `COc1ccc(Cn2c(=O)nc(NCc3cnc(C)cc3C)n(Cc3ccc(F)cc3)c2=O)cc1` [Cpd 116], the inhibition at 10 µM stood at 95% and the IC50 (commonly the concentration needed to halve the response being measured) was found to be 391 nM.

Consider `COc1ccc(Cn2c(NCc3cnccc3C)nc(=O)n(Cc3ccc(OC)cc3)c2=O)cc1` [Cpd 201], for which the inhibition at 10 µM amounted to 95% and the IC50 amounted to 327 nM.

Take `COc1ccc(Cn2c(SCc3cccnc3N)cc(=O)n(Cc3ccc(OC)cc3)c2=O)cc1` [Cpd 249]: the inhibition at 10 µM stood at 90% and the concentration for half-maximal inhibition (IC50) came out at 194 nM.

On to `Cc1cc(C)c(CNc2nc(=O)n(Cc3ccc4[nH]ccc4c3)c(=O)n2Cc2ccc(OC(F)F)cc2)cn1` [Cpd 227], for which the inhibition at 10 µM is 44% and the IC50 was > 10000 nM.

In the case of `COc1ccc(Cn2c(NCc3c(C)cc(C)nc3N3CCCCC3)nc(=O)n(Cc3ccc(OC)cc3)c2=O)cc1` [Cpd 213], the inhibition at 10 µM was found to be 45% and the IC50 was > 10000 nM.

In the case of `COc1ccc(Cn2c(NCc3ccc(C)nc3)nc(=O)n(Cc3ccc(OC)cc3)c2=O)cc1` [Cpd 59], the inhibition at 10 µM is 94% and the IC50 was 178 nM.

Turning to `COc1ccc(Cn2c(NCc3cnc(C)cc3C)nc(=O)n(Cc3ccc([N+](=O)[O-])cc3)c2=O)cc1` [Cpd 108], the inhibition at 10 µM was 42% and the IC50 was > 10000 nM.

As to `COc1ccc(Cn2c(C=Cc3ccncc3)cc(=O)n(Cc3ccc(OC)cc3)c2=O)cc1` [Cpd 184, 1,3-Bis-(4-methoxy-benzyl)-6-(2-pyridin-4-yl-vinyl)-1H-pyrimidine-2,4-dione], the inhibition at 10 µM came to 65% and the IC50 worked out at 2690 nM.

Consider `Cc1cc(C)[n+]([O-])c(N)c1CNc1nc(=O)n(Cc2ccc3c(c2)CCO3)c(=O)n1Cc1ccc2c(c1)CCO2` [Cpd 226, 6-[(2-Amino-4,6-dimethyl-1-oxy-pyridin-3-ylmethyl)-amino]-1,3-bis-(2,3-dihydro-benzofuran-5-ylmethyl)-1H-[1,3,5]triazine-2,4-dione], for which the inhibition at 10 µM was found to be 85% and the IC50 amounted to 922 nM.

In the case of `COc1ccc(Cn2c(NCc3cccnc3NCCC(C)C)nc(=O)n(Cc3ccc(OC)cc3)c2=O)cc1` [Cpd 67], the inhibition at 10 µM was 55% and the IC50 came out at 4820 nM.

In the case of `COc1ccc(Cn2c(NCc3cccnc3N)nc(=O)n(Cc3ccc(OC)c([N+](=O)[O-])c3)c2=O)cc1` [Cpd 124], the inhibition at 10 µM came to 61% and the half-maximal inhibitory concentration (IC50) came out at 815 nM.

Turning to `COC(=O)c1cccc(Cn2c(NCc3cccnc3N)nc(=O)n(Cc3ccc(OC)cc3)c2=O)c1` [Cpd 93], the inhibition at 10 µM worked out at 96% and the IC50 was 116 nM.

In the case of `Cc1cc(C)c(CNc2nc(=O)n(Cc3ccc4c(c3)nnn4C)c(=O)n2Cc2ccc3c(c2)CCO3)cn1` [Cpd 245], the inhibition at 10 µM was 45% and the IC50 was > 10000 nM.

In the case of `COc1ccc(Cn2c(NCc3c(OC)ccnc3N)nc(=O)n(Cc3ccc(OC)cc3)c2=O)cc1` [Cpd 58], the inhibition at 10 µM amounted to 95% and the IC50 stood at 89 nM.

For `CCCCNc1ncccc1CNc1nc(=O)n(Cc2ccc(F)cc2)c(=O)n1Cc1ccc(OC)cc1` [Cpd 16], the inhibition at 10 µM stood at 89% and the half-maximal inhibitory concentration (IC50) stood at 348 nM.

Consider `COCCCCCn1c(=O)nc(NCc2cnc(C)cc2C)n(Cc2ccc(OC)cc2)c1=O` [Cpd 197], for which the inhibition at 10 µM was determined as 54% and the IC50 was determined as 2840 nM.

Consider `COc1ccc(Cn2c(NCc3ncccc3C)nc(=O)n(Cc3ccc(OC)cc3)c2=O)cc1` [Cpd 65], for which the IC50 was > 10000 nM.

For `COc1ccc(Cn2c(NCc3cccnc3N3CCCCC3)nc(=O)n(Cc3ccc(OC)cc3)c2=O)cc1` [Cpd 13], the inhibition at 10 µM is 72% and the IC50 worked out at 544 nM.

For `COc1ccc(Cn2c(NCc3cc4ccccc4nc3N)nc(=O)n(Cc3ccc(OC)cc3)c2=O)cc1` [Cpd 9], the inhibition at 10 µM was found to be 95% and the concentration for half-maximal inhibition (IC50) was found to be 295 nM.

As to `COc1ccc(Cn2c(NCc3c(N)nc4c(c3-c3ccccc3)CCC4)nc(=O)n(Cc3ccc(OC)cc3)c2=O)cc1` [Cpd 246], the inhibition at 10 µM came out at 48% and the half-maximal inhibitory concentration (IC50) is 8320 nM.

The record behind these values is patent US20080287445A1, “Prokineticin 2 receptor antagonists” (priority 2005, published 2008).
